Measured values as given in patent publication US11814363B2, “Morphic forms of danicopan” (Achillion Pharmaceuticals, Inc., priority 2018, dated 2023).
Values after ≈ are worked out from the molar mass of the structure shown. Where two headings read alike, the source gives them in different places.

Key:
Type in all cases: physicochemical
[1] = Relative stability of hydrated Compound 1 forms vs water activity, PXRD; conditions: for water activity value (aw) at which the form is the stable hydrate: 25° C.
Method: The relative stability of hydrated Compound 1 Form II, Form IV, and Form V were studied at 25° C. and the results are shown in Table 6. […] Form V was determined to be the stable hydrate at aw=0.75, with […] the stable hydrate at aw=0.90. The water activity of the solvent mixture used for the crystallization process must be below 0.55 in order to obtain Form II consistently.

[2] = Dynamic vapor sorption (DVS) analysis
[3] = Physical stability of crystal forms on heating, drying or storage, PXRD
[4] = Visual solubility estimate of amorphous Compound 1 in solvents
Method: The solubility of amorphous Compound 1 was estimated in 14 solvents to facilitate the solvent selection for the crystallization study. The solubility of Compound 1 was visually estimated at room temperature (RT; ˜23° C.) by dosing small aliquots of solvent into a fixed amount of solid (˜10 mg) until the dissolution point or a maximum volume (1.7 mL) was reached.

[5] = as above; conditions: 40 °C, thermodynamic from solid
[6] = 102097-CR6, 2-propanol: 20 vol % Water, water activity 0.9
[7] = CR5, Acetonitrile: 10 vol % Water, water activity 0.75

Compound: CC(=O)c1nn(CC(=O)N2C[C@H](F)C[C@H]2C(=O)Nc2cccc(Br)n2)c2ccc(-c3cnc(C)nc3)cc12 [Compound 1, danicopan]
- PXRD Results 4 days/RT [1, 6]: Form III
- PXRD Results 8 days/RT [1, 6]: Form IH
- PXRD Results 4 days/RT ([1]; CR1, 2-propanol, water activity 0): Form II
- PXRD Results 4 days/RT ([1]; CR2, EtOAc, water activity 0): Form II
- PXRD Results 4 days/RT ([1]; CR3, Methanol: 10 vol % Water, water activity 0.33): Form II
- PXRD Results 4 days/RT ([1]; CR4, 2-propanol: 5 vol % Water, water activity 0.55): Form II
- PXRD Results 4 days/RT [1, 7]: Form V
- PXRD Results 8 days/RT [1, 7]: Form V

Compound: CC(=O)c1nn(CC(=O)N2C[C@H](F)C[C@H]2C(=O)Nc2cccc(Br)n2)c2ccc(-c3cnc(C)nc3)cc12 [Form V]
- water activity value (aw) at which the form is the stable hydrate [1]: 0.75

Compound: CC(=O)c1nn(CC(=O)N2C[C@H](F)C[C@H]2C(=O)Nc2cccc(Br)n2)c2ccc(-c3cnc(C)nc3)cc12 [Form II]
- water content of the hydrate by DVS ([2]; DVS isotherm): 2.7-4.0%
- critical RH step (DVS) ([2]; reversible hydration): 30 % RH
- water activity value (aw) at which the form is the stable hydrate [1]: ≤ 0.55
- crystal form by PXRD after heating past the dehydration endotherm ([3]; heated past dehydration endotherm, returned to room temperature): does not change the crystal-form

Compound: CC(=O)c1nn(CC(=O)N2C[C@H](F)C[C@H]2C(=O)Nc2cccc(Br)n2)c2ccc(-c3cnc(C)nc3)cc12 [Form IV]
- physically stable by PXRD, time ([3]; sealed vial): at least 10 days

Compound: CC(=O)c1nn(CC(=O)N2C[C@H](F)C[C@H]2C(=O)Nc2cccc(Br)n2)c2ccc(-c3cnc(C)nc3)cc12 [Form VI]
- PXRD pattern after sitting overnight ([3]; overnight on a PXRD holder, ambient): closely resembles Form V

Compound: CC(=O)c1nn(CC(=O)N2C[C@H](F)C[C@H]2C(=O)Nc2cccc(Br)n2)c2ccc(-c3cnc(C)nc3)cc12 [Form III]
- water activity value (aw) at which the form is the stable hydrate [1]: 0.90
- crystal form after drying ([3]; 70° C. under vacuum for 1 hour): did not change the crystal-form

Compound: CC(=O)c1nn(CC(=O)N2C[C@H](F)C[C@H]2C(=O)Nc2cccc(Br)n2)c2ccc(-c3cnc(C)nc3)cc12 [Amorphous Compound 1]
- solubility ([4]; 1,4-dioxane, 23 °C, organic solvent or mixture, thermodynamic from solid, 1,4-Dioxane, RT (~23° C.), visually estimated, read-out: Solubility at RT): 98 to 392 mg/mL (≈ 169 to 675 mM)
- solubility ([4]; 2-propanol, 23 °C, organic solvent or mixture, thermodynamic from solid, 2-Propanol, RT (~23° C.), visually estimated, read-out: Solubility at RT): < 5.71 mg/mL
- solubility ([4]; 2-propanol, 40 °C, organic solvent or mixture, thermodynamic from solid, 2-Propanol, 40° C., read-out: Solubility at 40° C.): > 5.71 mg/mL
- Solubility at RT ([4]; Dimethyl Sulfoxide, RT (~23° C.), visually estimated): >452 mg/mL
- Solubility at RT ([4]; Heptane, RT (~23° C.), visually estimated): <5.59 mg/mL
- Solubility at RT ([4]; Water, RT (~23° C.), visually estimated): <5.59 mg/mL
- solubility ([4]; acetone, 23 °C, organic solvent or mixture, thermodynamic from solid, Acetone, RT (~23° C.), visually estimated, read-out: Solubility at RT): 121 to 484 mg/mL (≈ 208 to 834 mM)
- solubility ([4]; acetonitrile, 23 °C, organic solvent or mixture, thermodynamic from solid, Acetonitrile, RT (~23° C.), visually estimated, read-out: Solubility at RT): 98 to 392 mg/mL (≈ 169 to 675 mM)
- solubility ([4]; chloroform, 23 °C, organic solvent or mixture, thermodynamic from solid, Chloroform, RT (~23° C.), visually estimated, read-out: Solubility at RT): 92 to 368 mg/mL (≈ 159 to 634 mM)
- solubility ([4]; dichloromethane, 23 °C, organic solvent or mixture, thermodynamic from solid, Dichloromethane, RT (~23° C.), visually estimated, read-out: Solubility at RT): 99 to 396 mg/mL (≈ 171 to 682 mM)
- solubility ([4]; dimethyl sulfoxide, 23 °C, organic solvent or mixture, thermodynamic from solid, Dimethyl Sulfoxide, RT (~23° C.), visually estimated, read-out: Solubility at RT): > 452 mg/mL
- solubility ([4]; ethyl acetate, 23 °C, organic solvent or mixture, thermodynamic from solid, Ethyl Acetate, RT (~23° C.), visually estimated, read-out: Solubility at RT): 91 to 364 mg/mL (≈ 157 to 627 mM)
- solubility ([4]; heptane, 23 °C, organic solvent or mixture, thermodynamic from solid, Heptane, RT (~23° C.), visually estimated, read-out: Solubility at RT): < 6 mg/mL
- solubility ([4]; methanol, 23 °C, organic solvent or mixture, thermodynamic from solid, Methanol, RT (~23° C.), visually estimated, read-out: Solubility at RT): 48 to 96 mg/mL (≈ 82.7 to 165 mM)
- Solubility at RT ([4]; t-Butyl Methyl Ether (MTBE), RT (~23° C.), visually estimated): <5.71 mg/mL
- solubility ([4]; t-butyl methyl ether (MTBE), 23 °C, organic solvent or mixture, thermodynamic from solid, t-Butyl Methyl Ether (MTBE), RT (~23° C.), visually estimated, read-out: Solubility at RT): < 6 mg/mL
- solubility ([4]; tetrahydrofuran, 23 °C, organic solvent or mixture, thermodynamic from solid, Tetrahydrofuran, RT (~23° C.), visually estimated, read-out: Solubility at RT): 92 to 368 mg/mL (≈ 159 to 634 mM)
- solubility ([4]; toluene, 23 °C, organic solvent or mixture, thermodynamic from solid, Toluene, RT (~23° C.), visually estimated, read-out: Solubility at RT): < 5.35 mg/mL
- solubility ([4]; toluene, 40 °C, organic solvent or mixture, thermodynamic from solid, Toluene, 40° C., read-out: Solubility at 40° C.): > 5.35 mg/mL
- solubility ([4]; water, 23 °C, water, thermodynamic from solid, Water, RT (~23° C.), visually estimated, read-out: Solubility at RT): < 6 mg/mL
- solid form after the DVS experiment by PXRD ([2]; after DVS 0-90% RH): remained amorphous
- water uptake (DVS) ([2]; from 0-90% RH): 4.0%
- solubility ([5]; heptane, organic solvent or mixture): < 5.59 mg/mL
- solubility ([5]; t-butyl methyl ether, organic solvent or mixture): < 5.71 mg/mL
- solubility ([5]; water): < 5.59 mg/mL
